The record followed here is patent US7410655B2, “Anticancer agent” (Nobel Limited Liability Company, priority 2001, dated 2008).

For the assay, the system named is PA-23 rhabdomyosarcoma. The assay is described as follows: PA-23 rhabdomyosarcoma lung metastases after inoculation in the caudal vein of rats. The format is in vivo. The conditions noted are these: Example 2; 0.003 mg/ml in sodium chloride isotonic solution. Here is the method: The preparation anti-tumor action was tested on female white rats.
The PA-23 rhabdomyosarcoma cell suspension was inoculated in the caudal vein of all rats, being generally used as a model for investigating the ability of such preparations to inhibit stroma development, which is characteristic of most malignant tumors.
All the animals were divided into 5 groups. On the following day after the inoculation a physiological solution was intra-abdominal injected into the rats of Group 1 (0.5 ml per animal); 0.1 ml of the preparation—into the rats of Group 2, 0.3 ml of the preparation—into the rats of Group 3; 0.5 ml of the preparation—into the rats of Group 4; and 0.8 ml of the preparation—into the rats of Group 5. Prior to administration the preparation had been diluted with a physiological solution in the ratio of 1 to 10.
Subsequent administration of the preparation […] was carried out every third day. On the 20 th day following the tumoral inoculation the rats were destroyed. Their bodies were dissected, the number of metastases in their lungs calculated and their respective weight determined by means of analytical balance weighing.
As in Example 1, the PA-23 rhabdomyosarcomas were used as a model. Tumoral inoculation was performed in a similar way. The laboratory animals were also divided into groups. The sodium chloride isotonic solution was injected into Group 1 (control), potassium tetrachloroplatinate in the sodium chloride isotonic solution—into Group 2, ammonium lignohumic acid salts in the sodium chloride isotonic solution were injected into Group 3, injections of the proposed preparation diluted with a physiological solution in the ratio of 1 to 10 were given to Group 4.

On to `[Cl][Pt-2]([Cl])([Cl])[Cl].[K+].[K+]` [Potassium tetrachloroplatinate solution, potassium tetrachloroplatinate], for which the “Average number of metastases per rat” value is 33.2 ± 6.2; the “Average weight of 1 metastasis” value worked out at 42.9 ± 4.3 mg; the “Average weight of 1 metastasis, % of the Control Group” value came out at 88.5%; the Number of metastases is 531.
